Reference: BigSolDB 2.1

CC(C)(C#N)N=NC(C)(C)C#N
Details	solubility (mole fraction)
in acetone, 278.15 K	0.0518
in acetone, 283.45 K	0.062
in acetone, 288.75 K	0.0741
in acetone, 293.05 K	0.0881
in acetone, 297.85 K	0.106
in acetone, 302.95 K	0.127
in acetone, 307.95 K	0.145
in acetone, 312.75 K	0.176
in acetone, 318.05 K	0.209
in acetone, 322.75 K	0.236
in benzene, 279.25 K	0.0254
in benzene, 283.75 K	0.0311
in benzene, 290.05 K	0.0411
in benzene, 293.65 K	0.049
in benzene, 298.05 K	0.0603
in benzene, 303.25 K	0.077
in benzene, 307.95 K	0.0938
in benzene, 312.65 K	0.119
in benzene, 317.65 K	0.151
in benzene, 322.25 K	0.181
in ethanol, 278.55 K	0.00263
in ethanol, 284.35 K	0.00408
in ethanol, 288.95 K	0.00511
in ethanol, 293.15 K	0.00667
in ethanol, 297.85 K	0.00938
in ethanol, 302.95 K	0.0128
in ethanol, 307.65 K	0.0165
in ethanol, 312.55 K	0.0221
in ethanol, 317.65 K	0.0314
in ethanol, 322.55 K	0.0427
in ethyl acetate, 278.15 K	0.0349
in ethyl acetate, 282.85 K	0.0424
in ethyl acetate, 287.75 K	0.053
in ethyl acetate, 293.65 K	0.0669
in ethyl acetate, 298.35 K	0.0821
in ethyl acetate, 303.15 K	0.0959
in ethyl acetate, 307.85 K	0.119
in ethyl acetate, 312.95 K	0.144
in ethyl acetate, 317.95 K	0.175
in ethyl acetate, 322.95 K	0.206
in methanol, 268.15 K	0.0034
in methanol, 273.15 K	0.00441
in methanol, 278.15 K	0.00567
in methanol, 283.15 K	0.00738
in methanol, 288.15 K	0.00942
in methanol, 293.15 K	0.0124
in methanol, 298.15 K	0.0162
in methanol, 303.15 K	0.0212
in methanol, 308.15 K	0.0277
in methanol, 313.15 K	0.0364
in methanol, 318.15 K	0.0479
in methanol, 323.15 K	0.0637
